The source of these data is US20260327255A1, “LIGAND-DIRECTED COVALENT MODIFICATION OF AMINO ACID SIDE CHAINS USING CYCLIC IMINE MANNICH ELECTROPHILES” (Purdue Research Foundation, priority 2022, published 2026).

Entries after “also recorded” stand apart in the source; their conditions may differ.

Data set [1] is described as follows: Stability of cyclic imines in aqueous media (LC/MS). As to conditions: 96-hours incubation in PBS, 0.1M HCl, 0.1M NaOH. The data set is classed as physicochemical. The procedure:
To validate the stability of cyclic imines as covalent warheads, imines 1-4 were evaluated by LC/MS after 96-hours incubation in PBS, 0.1M HCl, and 0.1M NaOH (Table 1).

Data set [2] can be described thus: Reaction of cyclic imines with N-acetyl-L-tyrosine methylamide (HPLC/LC-MS). As to conditions: for reaction half-life (t1/2): 5 mM imine, 100 mM Ac-Tyr-NHMe; for reaction half-life (t1/2) / reactivity to tyrosine: PBS pH 7, 37° C.; for second-order rate constant: pseudo-first order conditions; for reactivity to tyrosine: in words, Ac-Tyr-NHMe. How it is done:
The reaction was monitored using liquid chromatography/mass spectrometry (LC/MS).
(§1) Reactions were conducted under pseudo first order conditions with an excess of one reactant. The reduction in the concentration of the limiting reactant A was measured at various time points by HPLC analysis. Rates of imine 1 with N-Ac-Tyr-NMe, indole-3-butyric acid, and 1H-pyrrole-1-propionic acid and of imine 2 with N-Ac-Tyr-NMe were measured.
(§2) Reaction of imine 1 (5 mM) with (A) N-Ac-Tyr-NHMe (100 mM) or (B) indole-3-butyrate (100 mM) at indicated time points.
(§3) Reaction of (A) imine 1 (5 mM) with N-Ac-Tyr-NHMe (100 mM) at 37° C. or (B) at room temperature. (C) imine 2 (5 mM) with N-Ac-Tyr-NHMe (100 mM) at 37° C. (D) imine 1 (5 mM) with indole-3-butyrate (100 mM) (E) imine 1 (10 mM) with 1 mM 1H-pyrrole-1-propionate (F) iminium 6 (5 mM) with N-Ac-Tyr-NHMe (100 mM) at 37° C. at pH 7 (G) iminium 6 (5 mM) with N-Ac-Tyr-NHMe (100 mM) at 37° C. at pH 3 at indicated time points.
Several cyclic imines (5 mM) were incubated with a simple tyrosine analog N-acetyl-L-tyrosine methylamide (Ac-Tyr-NHMe) in PBS pH 7 at 37° C. (FIGS. 2-3). The reactivity was quantitated by UV integration on HPLC with liquid chromatography/mass spectrometry (LC/MS) confirmation of reaction product identity (FIG. 4). Under these pseudo-first order reaction conditions, reaction half-lives and second-order rate constants were determined.

Data set [3] in a line: Aqueous solubility. Format: physicochemical.
Data set [4] deals with angiotensin II. As to the kind of experiment: Labeling of angiotensin II with imine 1 (LC/MS). As to conditions: 50 mM imine 1, 10 mM angiotensin II, 16 hours. How it is done:
UV trace of reaction mixture of compound 1 (cyclic imine 1) with angiotensin II. […] (Mono cyclic imine-angiotensin II conjugate peak at 2 min): calc. [M+H]^+: 1199.2, found [M+H]^+: 1199.3, [M+2H]^2+: 600.3, [M+3H]^3+: 400.6. (Di-cyclic imine-angiotensin II conjugate peak at 2.1 min): calc. [M+H]^+: 1351.2, found [M+H]^+: 1351.8, [M+2H]^2+: 676.4, [M+3H]^3+: 451.0. (Unmodified angiotensin II (8-mer) peak at 2.2 min): m/z calc. [M+H]^+: 1047.2, found [M+H]^+: 1047.2, [M+2H]^2+: 524., [M+3H]^3+: 350.
(§4) To confirm reactivity and selectivity with a peptide context, imine 1 (50 mM) was incubated with the tyrosine-containing 8-mer peptide angiotensin II ([…]) (10 mM) (FIG. 10). The combined yield of mono-labeled and di-labeled angiotensin II was ~45% as quantified by LC/MS. Cyclic imine 1 (50 mM) was also incubated with a small protein (recombinant CBX8 chromodomain (ChD), which contains multiple tyrosines and tryptophans; 10 μM in PBS buffer (pH=7; 0.02% Tween 20)) at room temperature overnight. With overnight incubation, two to three additions of the imine were observed by mass spectrometry.

Data set [5] can be described thus: Reaction of imine 1 with indole-3-butyrate (tryptophan mimic). How it is done: as §1, §2, §3
Data set [6] can be described thus: Effect of thiols on tyrosine labeling with imine 1. As to conditions: 5 mM imine, 100 mM Tyr, 5 mM cysteine, vs control. How it is done: Cyclic imine 1 (5 mM) was incubated with 100 mM acetyl tyrosine methyl amide and 5 mM […] (in the presence of 5 mM TCEP). Reaction yield was quantified based on UV integrations of Mannich product at 4 h, 9 h, 17 h, 24 h, and 32 h. Imine consumption rate was quantified based on the UV integration of Mannich product at 4 h, 9 h, 17 h, 24 h, and 32 h.
Thiol addition to the imine is reversible, yet this reaction may limit the desired reactivity of imines to tyrosines in cellular contexts where glutathione concentrations can be 1-10 mM (Meister et al. J. Biol. Chem. 1988, 263(33), 17205-17208; Forman et al. Mol. Aspects Med. 2009, 30(1-2), 1). To evaluate this reversibility, the pre-formed thioaminal product of 1 with N-acetyl-cysteine methyl amide was treated with either glutathione (1 M) or Ac-Tyr-NHMe (100 mM). […] To evaluate potential effects of cellular thiols on tyrosine labeling rate, the cyclic imine-Tyr reaction (at 5 mM and 100 mM, respectively) was evaluated over time in the presence of cysteine (5 mM) (FIG. 9).

For data set [7], the target named is T1, recombinant CBX8 chromodomain (ChD) (Homo sapiens, UniProt Q9HC52).
T1 construct: expected mass of CBX8 ChD 8792 Da
T1 sequence (Q9HC52 8-69 limits assumed): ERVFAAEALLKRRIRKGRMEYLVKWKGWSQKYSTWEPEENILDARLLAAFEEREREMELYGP
In words: Labeling of CBX8 chromodomain with imine 1 (mass spectrometry). Format: binding. As to conditions: 50 mM imine, 10 μM CBX8 ChD, PBS pH 7, 0.02% Tween 20, room temperature overnight. The procedure: as §4

Data set [8] is described as follows: Amino acid mimetic reactivity, LC/MS: pyrrole (pyrrole-lysine mimic). As to conditions: 100 mM, PBS pH 7, 37° C., 24 h. How it is done:
(§5) Cyclic imine 1 was incubated with 100 mM compounds in PBS (pH 7) at 37° C. for 24 hours and then analyzed by LC/MS. (A) Compounds include β-mercaptoethanol, imidazole, isopropanol, n-butylamine, propionic acid, 3-methyl indole, and N-ethyl pyrrole (pyrrole-lysine). UV LC/MS traces for (B) β-mercaptoethanol, (C) 3-methyl indole, and (D) N-ethyl pyrrole. LR-ESI-MS: imine-thiol product m/z calc. for [M+H]^+ 231.1; found: 231.2. Imine-indole product m/z calc. for [M+H]^+: 284.2; found: 284.2. Imine-pyrrole product m/z calc. for |M+H|^+: 248.2; found: 248.2.
(§6) To assess the selectivity to other amino acids, we tested compounds mimicking amino acid side chain functional groups, including β-mercaptoethanol (cysteine), imidazole (histidine), isopropanol (serine/threonine), n-butylamine (lysine), propionic acid (aspartic acid/glutamic acid), 3-methyl indole (tryptophan), and N-ethyl pyrrole (pyrrole-lysine). […] Conjugation to thiols was expected based on previous reports (Minakawa et al. J. Org. Chem. 2008, 73(21), 8669-8672; Cavaca et al. Mol. 2022, 27(5), 1673).

The nature of data set [9]: Amino acid mimetic reactivity, LC/MS: thiol (cysteine mimic). The note with it: 100 mM, PBS pH 7, 37° C., 24 h. How it is done:
as §5, §6

Data set [10] in a line: Amino acid mimetic reactivity, LC/MS: indole (tryptophan mimic). As to conditions: 100 mM, PBS pH 7, 37° C., 24 h. How it is done: as §5, §6
Data set [11] is described as follows: Reaction of imine 1 with 1H-pyrrole-1-propionate (pyrrole-Lys mimic). The procedure:
as §1, §3
We also tested 1 with N-ethyl pyrrole as a mimic of pyrrolated lysine, a lesser-known post-translational modification (Miyashita et al. Sci. Rep. 2014, 4, 5343; Chikazawa et al. J. Biol. Chem. 2020, 295(22), 7697-7709). […] Previous work with N-pyrrolyl alanine derivatives has shown fast and selective Pictet-Spengler reactions with aldehyde-containing biomolecules (Pomplun et al. Angew. Chemie Int. Ed. 2019, 58(11), 3542-3547).^50 Under conditions of 10 mM cyclic imine 1 with 1 mM 1H-pyrrole-1-propionate (as a soluble pyrrole-Lys mimic), we determined a second order rate constant of 5.9×10^−2 M^−1 s^−1 (FIGS. 3 and 5).

The nature of data set [12]: Hydrolysis of aromatic ester imine in water / PBS. Format: physicochemical.

`O=C1C=NC2CCCCC2O1` (stereo not shown) [Compound 2]: the “stability (in words)” value in [1] is recorded as “hydrolyzed under basic conditions”. Also, in [2], the “reaction half-life (t1/2)” value stood at 0.667 h. The compound further gave a second-order rate constant in data set [2] (37° C.) of 0.0029 M⁻¹ s⁻¹. For the same compound, in [2] (relative to imine 1, Ac-Tyr-NHMe), the “increase in rate constant relative to 1” value was ~ 10 fold.
For `CC1=NCCC1` [Compound 10], in [2], the reactivity to tyrosine entry was “no”.
On to `Oc1cnc2ccccc2n1` [Compound 4], for which, in data set [1], the “stability (in words)” value is “stable under all conditions”. In addition, the reactivity to tyrosine entry in [2] is reported as “unreactive”.
With `Cc1c[nH]c2ccccc12` [3-methyl indole], the aqueous solubility entry in data set [3] is recorded as “poor aqueous solubility”.
On to `C#CCn1c(=O)cnc2ccccc21` [Compound 5], for which, in data set [2], the reactivity to tyrosine result is “unreactive”.
As for `O=C1C=NC2CCCCC2N1` (stereo not shown) [Compound 1], the “combined yield of mono-labeled and di-labeled angiotensin II” value in [4] is ~ 45%. Also, the “stability (in words)” value in data set [1] is on record as “stable under all conditions”. In addition, the “fold lower rate constant than to tyrosine” value in data set [5] (indole-3-butyrate vs tyrosine) amounted to 2 fold. Besides, the “second order rate constant (k2)” value in [5] (indole-3-butyrate, 37° C.) turned out to be 0.00011 M⁻¹ s⁻¹. In addition, the “effect of cysteine on tyrosine-imine reaction rate” value in data set [6] is given as “slightly slowed the reaction rate”. For the same compound, the “reaction half-life (t1/2)” value in data set [2] is 8 ± 0.3 h. Also, the figures for the second-order rate constant in data set [2] (37° C.) and in data set [2] (R.T.) were 0.00024 M⁻¹ s⁻¹ and 0.00015 M⁻¹ s⁻¹, respectively. Moreover, the “number of additions of the imine” value in data set [7] is “two to three”. Further, the “conjugate formation with N-ethyl pyrrole” value in data set [8] is reported as “Stable conjugates”. The “conjugate formation with β-mercaptoethanol” value in data set [9] is given as “Stable conjugates”. For the same compound, in [10], the “conjugate formation with 3-methyl indole” value is listed as “Stable conjugates; also recorded: multiple products”. Moreover, the “second order rate constant” value in [11] (10 mM imine 1, 1 mM 1H-pyrrole-1-propionate) is 0.059 M⁻¹ s⁻¹. In addition, in data set [11] (1H-pyrrole-1-propionate vs Tyr), the “increase in rate constant relative to Tyr” value is ~ 200 fold.
For the compound `O=c1cnc2ccccc2o1` [Compound 3], in [1], the “stability (in words)” value is listed as “hydrolyzed under basic conditions; also recorded: unstable in PBS”. In addition, the reactivity to tyrosine entry in data set [2] is “did increase the rate of Mannich addition; also recorded: low intrinsic reactivity”. Also, the degraded at 1 h in data set [12] (PBS, pH 7, within an hour) stood at 70%. Also, in data set [12] (water), the stability in water result is “stable in water”.
For `C1=NCCc2ccccc21` [Compound 9], the reactivity to tyrosine entry in data set [2] is recorded as “limited”.
